Results as given in the supplement of paper PMC10307832.

Columns and labels:
Assay in all cases: relative viability (nuclei count vs DMSO), 5 days (fraction); higher = more cells survive
[1] = compound: O=C(C[C@H]1NCCC[C@@H]1O)Cn1cnc2cc(Br)c(Cl)cc2c1=O (racemic) [Halofuginone] + NC(=O)Nc1cc(-c2cccc(F)c2)sc1C(=O)N[C@H]1CCCNC1 [AZD7762] (partner 0.2 µM)
Summary of the method: (§1)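 One day after seeding in 1536-well plates, lung cancer cell lines were dosed by pin tool. Dosing was either single-drug or a fixed anchor-drug dose plus five library-drug doses (not always all listed) in √10 steps. After 5 days, nuclei were stained in one fix-and-stain step and counted on 4× images, and relative viability is the nuclei count of treated wells over that of vehicle wells, given as the median of duplicate plates.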

[2] = compound: COc1cc2c(Oc3ccc4[nH]c(C)cc4c3F)ncnc2cc1OCCCN1CCCC1 [Cediranib] + CCNC(=O)c1noc(-c2cc(C(C)C)c(O)cc2O)c1-c1ccc(CN2CCOCC2)cc1 [Luminespib] (partner 0.01 µM)
Summary of the method: as §1

[3] = compound: O=C(C[C@H]1NCCC[C@@H]1O)Cn1cnc2cc(Br)c(Cl)cc2c1=O (racemic) [Halofuginone] + CC(=O)Nc1cccc(-n2c(=O)n(C3CC3)c(=O)c3c(Nc4ccc(I)cc4F)n(C)c(=O)c(C)c32)c1 [Trametinib] (partner 0.02 µM)
Summary of the method: as §1

[4] = compound: COc1cc2c(Oc3ccc4[nH]c(C)cc4c3F)ncnc2cc1OCCCN1CCCC1 [Cediranib] + CS(=O)(=O)N1CCN(Cc2cc3nc(-c4cccc5[nH]ncc45)nc(N4CCOCC4)c3s2)CC1 [Pictilisib] (partner 1 µM)
Summary of the method: as §1

Row | Cell Line | relative viability ([1]; first compound 0.001 µM) | relative viability ([1]; first compound 0.003162 µM) | relative viability ([1]; first compound 0.01 µM) | relative viability ([1]; first compound 0.03162 µM) | relative viability ([1]; first compound 0.1 µM) | relative viability ([2]; first compound 0.04 µM) | relative viability ([2]; first compound 0.1265 µM) | relative viability ([2]; first compound 0.4 µM) | relative viability ([2]; first compound 1.265 µM) | relative viability ([2]; first compound 4 µM) | relative viability ([3]; first compound 0.001 µM) | relative viability ([3]; first compound 0.003162 µM) | relative viability ([3]; first compound 0.01 µM) | relative viability ([3]; first compound 0.03162 µM) | relative viability ([3]; first compound 0.1 µM) | relative viability ([4]; first compound 0.04 µM) | relative viability ([4]; first compound 0.1265 µM) | relative viability ([4]; first compound 0.4 µM) | relative viability ([4]; first compound 1.265 µM) | relative viability ([4]; first compound 4 µM)
1 | PC-14 | 0.435 | 0.409 | 0.381 | 0.366 | 0.198 | 0.137 | 0.16 | 0.154 | 0.108 | 0.119 | 0.809 | 0.618 | 0.702 | 0.154 | 0.0395 | 0.826 | 0.918 | 0.487 | 0.438 | 0.652
2 | NCI-H322M | 0.517 | 0.708 | 0.526 | 0.614 | 0.426 | 0.982 | 1.15 | 0.826 | 0.831 | 0.771 | 0.512 | 0.441 | 0.513 | 0.479 | 0.423 | 0.52 | 0.698 | 0.533 | 0.467 | 0.521
3 | NCI-H1666 | 0.811 | 0.711 | 0.84 | 0.841 | 0.956 | 1.05 | 1.04 | 1.05 | 0.981 | 1.07 | 0.944 | 0.852 | 0.79 | 0.865 | 0.68 | 0.383 | 0.475 | 0.422 | 0.5 | 0.431
4 | A-427 | 0.729 | 0.806 | 0.805 | 0.77 | 0.497 | 1.25 | – | 0.84 | 0.906 | 0.928 | 0.823 | 0.787 | 0.742 | 0.714 | 0.634 | 0.716 | – | 0.608 | 0.573 | 0.707
5 | NCI-H1651 | 0.485 | 0.487 | 0.476 | 0.457 | 0.466 | 0.763 | 0.751 | 0.786 | 0.861 | 0.892 | 0.8 | 0.853 | 0.804 | 0.819 | 0.806 | 0.666 | 0.77 | 0.533 | 0.458 | 0.445
6 | NCI-H1793 | 0.461 | 0.593 | 0.508 | 0.394 | 0.549 | 0.182 | 0.176 | 0.224 | – | 0.201 | 0.483 | 0.524 | 0.363 | 0.503 | 0.327 | 0.404 | 0.294 | 0.345 | – | 0.299
7 | 201T | 0.634 | 0.634 | 0.589 | 0.711 | 0.8 | 1.2 | 1.34 | 1 | 1.03 | 1.03 | 0.71 | 0.715 | 0.703 | 0.723 | 0.663 | 0.725 | 0.699 | 0.639 | 0.632 | 0.7
8 | NCI-H460 | 0.725 | 0.601 | 0.673 | 0.605 | 0.305 | 0.0397 | 0.0286 | 0.0301 | 0.0321 | 0.0373 | 0.115 | 0.197 | 0.172 | 0.0823 | 0.022 | 0.466 | 0.7 | 0.355 | 0.33 | 0.397
